In patent US20210101881A1 (Ancureall Pharmaceutical (Shanghai) Co., Ltd., priority 2018, published 2021):

System: human MOLM13 leukemia cells
Assay: In vivo growth inhibition test of tumor cell (MOLM13 subcutaneous model)
Procedure: Test Example 4. In Vivo Growth Inhibition Test of Tumor Cell
Experimental animals: Bab/c immunodeficiency mice, female, 6 weeks old (weighing about 20 grams), purchased from Shanghai Sippr-BK laboratory animal Co. Ltd., raised by the Animal Center of Shanghai Fudan University, approved by the Ethics Committee of Shanghai Fudan University. The breeding environment is SPF level.
Test samples: Compound 140 of the present invention (purity: 99%), solid powder, stored at 4-8° C.
Cell and animal modelling: human MOLM13 leukemia cells were cultured in RPMI 1640 medium containing 10% fetal bovine serum. Cells in the exponential growth phase were collected (centrifuge at 1700 rpm for 3 minutes), washed once with 1×PBS, and resuspended to obtain a final concentration of 5×10^7/ml cells. Single-point inoculation of 0.1 ml was carried out subcutaneously on the right back.
When the average tumor volume reached ˜400 mm^3, the mice were randomly grouped according to tumor size. The test was divided into solvent control group and administration group, with 3 mice in each group. 0.01 ml of solution per gram of mouse weight was intragastrically administered (p.o.) once a day. The tumor was measured three times a week. Calculation formula for tumor volume: long diameter×short diameter^2/2. When the tumor volume of the control group reached 2000 mm^3, the experiment was ended, and molecular pathological analysis of tumor tissue was performed. The efficacy was evaluated based on the relative tumor growth inhibition rate (TGI), and the safety was evaluated based on the change of animal weight.
Formulation of test samples: An appropriate amount of compound 140 was weighed. An appropriate amount of ultrapure water was added and mixed well.
Methanesulfonic acid was then added to obtain a clear solution, and 4M NaOH was added dropwise to adjust pH to 4.3. Ultrapure water was added to obtain a constant volume and a final concentration of 5 mg/ml.
The solvent control group was an aqueous methanesulfonic acid solution (pH 4.3).
T/C % represents the relative tumor growth rate, that is, the percentage ratio of relative tumor volume or tumor weight of the administration group to that of the control group at a certain time point. T and C respectively represent the relative tumor volume (RTV) of the administration group and the control group at a certain time point. T/C % is calculated as follows:
wherein TRTV: the average RTV of the administration group; CRTV: the average RTV of the solvent control group: RTV=Vt/V0, V0 represents the tumor volume of the animal at the time of grouping, and Vt represents the tumor volume of the animal after administration.
Statistical analysis: All test results were expressed as mean tumor volume±SEM (mean standard error). The tumor volume data on Day 9 after the start of administration was selected for statistical analysis among different groups. The significant difference between the relative tumor volume of the administration group and that of the control group was determined by independent sample T test method. All data were analyzed with SPSS 18.0. p<0.05 means that there is a significant difference.

[1] = MOLM13 model, 50 mg/kg p.o. once a day, Day 9 after the start of administration

NC(=O)c1cn(-c2nc(Nc3cccc(N4CCN(C5CCOCC5)CC4)c3)ncc2F)c2ccccc12 [Compound 140, 1-(5-fluoro-2-{3-[4-(tetrahydro-pyran-4-yl)-piperazin-1-yl]-phenylamino}-pyrimidin-4-yl)-1H-indole-3-carboxamide]
tolerability of the drug (50 mg/kg p.o. once a day): well tolerated | weight of the mouse during the administration (50 mg/kg p.o. once a day): remained stable | TGI (%) [1]: 91.29% | TIC (%) [1]: 8.71% | Tumor volume (mm^3) (MOLM13 model, 50 mg/kg p.o. once a day, Day 9 after the start of administration, mean ± SEM): 164.8 ± 12 mm^3 | growth of human acute myeloid leukemia MOLM13 cells in vivo (dose of 50 mg/kg): effectively inhibit the growth
